This passage reports TGI and GI50 results from PubChem BioAssay (NCI).

Among the test systems are DU-145 prostate; HS 578T breast; T-47D breast; MDA-N; HOP-62 NSCLC; A498 renal; MDA-MB-435; BT-549 breast; HOP-18 NSCLC; DLD-1 colon; SNB-78 CNS; KM20L2 colon; DMS 273 small cell lung; IGROV1 ovarian; MOLT-4 leukemia.
Experiment in all cases: growth of human tumour cells (NCI), 48 h

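Cultured in 96-well plates, cells were exposed to test compound for 48 hours across five concentrations. GI50 marks 50% less growth. TGI: total growth inhibition.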

For the molecule `CC1=C(C)[C@@]2(C)O[C@@]2(C)O[C@@]2(C)O[C@@]12C`, the TGI in the test with DU-145 prostate, in the test on HS 578T breast, with T-47D breast, with MDA-N, with HOP-62 NSCLC and in the test on A498 renal was greater than 100 µM throughout. Besides, the TGI in the test on MDA-MB-435 and in the test with BT-549 breast was greater than 100 µM in each case.
With `O=C([O-])CC(=O)[O-].O=C([O-])CC(=O)[O-].[K+].[Pd+2]`, the GI50 in the test with HOP-18 NSCLC, with DLD-1 colon, with SNB-78 CNS, in the test with KM20L2 colon and in the test with DMS 273 small cell lung was greater than 100 µM throughout. Besides, the TGI with HOP-18 NSCLC, in the test on DLD-1 colon, in the test on SNB-78 CNS, with KM20L2 colon and in the test on DMS 273 small cell lung was greater than 100 µM throughout.
Take `O=C(Nc1ccc(C2=NCCN2)cc1)c1cncc(C(=O)Nc2ccc(C3=NCCN3)cc2)c1`: the TGI with HOP-18 NSCLC, with IGROV1 ovarian, with HOP-62 NSCLC, with DLD-1 colon, in the test on SNB-78 CNS and with KM20L2 colon was greater than 100 µM in each case. Also, the TGI in the test on A498 renal, in the test on DMS 273 small cell lung and with MOLT-4 leukemia was greater than 100 µM throughout.
Take `CCOC(=O)C(NC(C)=O)(Nc1ccc(F)cc1)C(F)(F)F` (stereo not given): the TGI was greater than 100 µM with DU-145 prostate; greater than 100 µM with HS 578T breast; 81.5 µM in the test on T-47D breast; greater than 100 µM with IGROV1 ovarian; greater than 100 µM in the test on MDA-N; greater than 100 µM with MOLT-4 leukemia. Moreover, the TGI in the test with MDA-MB-435 and in the test with BT-549 breast was greater than 100 µM in each case.
